Results on 13 compounds are retold here after patent publication US10792365B2, “Peptide derivative and use thereof” (Toray Industries, Inc., priority 2016, dated 2020).

In one data set the test system is A549 cells. Nature of the data set: In vitro cytotoxicity of the peptide derivative (I), MTS method, A549 cells. It is filed as cell-based, human. Particulars: Homo sapiens. An excerpt:
(§1) The cytotoxicity of the peptide derivative (I) or a pharmaceutically acceptable salt thereof, or the conjugate including the peptide derivative (I) or a pharmaceutically acceptable salt thereof can be evaluated with an in vitro study. Examples of the in vitro studies include the trypan blue dye exclusion method, the lactate dehydrogenase (LDH) activity assay, [^3H]thymidine incorporation method, or propidium iodide nuclear stain that each measures the number of dead cells or surviving cells post treated with the compound; a method using dyes such as MTT, MTS, and WST (Current Protocol in Toxicology, (2000), 2.6.1-2.6.27); or a method in which the amount of ATP is measured using CellTiter-Glow (Promega Corporation) and the like, and preferably include the method in which the number of surviving cells post treated with the compound is measured by using the MTS method to determine values of the cytotoxicity at that time from 50% effect-concentration (EC50). Furthermore, in the evaluation of the cytotoxicity of the conjugate including the peptide derivative (I) or a pharmaceutically acceptable salt thereof, preferred method is the one that for a certain time, cells are treated with a medium containing the compound, the cells are then transferred to a medium not containing the compound, and the number of surviving cells are measured after cultivation for additional certain time (Bioconjugate Chemistry., 2014; 25: pp. 560-568). For the in vitro studies, human ovarian cancer cell SKOV-3 cells, human alveolar basement epithelial gland cancer cell A549 cells, mouse lymphocytic leukocyte L1210 cells and the like are used.
On the technique in general: Formazan colour is commonly taken as a measure of viable cells.

A further data set deals with SKOV-3 cells. Nature of the data set: In vitro cytotoxicity of the peptide derivative (I), MTS method, SKOV-3 cells. It is filed as cell-based, human. Conditions: Homo sapiens, SK-OV-3.
From the text: as §1

The subject of the next data set is L1210 cells. In words: In vitro cytotoxicity of the peptide derivative (I), MTS method, L1210 cells. Type of data set: cell-based, mouse. Particulars: Mus musculus.
From the text: as §1

A short description of data set [1]: Parallel Artificial Membrane Permeation Assay (PAMPA), Pre-coated PAMPA Plate System (Corning). How it is done: Reference Example 14, the Compound of Reference Example 16, and the Compound of Comparative Example was Evaluated by Using Pre-Coated PAMPA PlateSystem (Corning)
A frozen-stored, Pre-coated PAMPA Plate System was allowed to stand at room temperature for thirty minutes or more. Subsequently, 320 μL of the standard solution was added to a Donor side plate of Pre-coated PAMPA Plate System, and 200 μL of the PBS containing 20% of methanol was added to an Acceptor side plate. Both of the plates were set for the system, and the plates allowed to stand at room temperature for five hours. The reaction liquid in each well of the Donor side and Acceptor side plates was subjected to LC/MS analysis (hereinafter, LC/MS-3), and the concentration of the compounds in each well calculated.
Using the obtained concentration of the compounds in the reaction liquid in each well, the membrane permeability coefficients (Pe) (cm/s) were calculated by the following formula: Cequilibrium=[…] Pe=[−ln(1−CA/Cequilibrium)]/S×(1/VD+1/VA)×t Cequilibrium: Equilibrium concentration of the wells in the Donor side and Acceptor side plates CD: Concentration after five hours of the wells in the Donor side plate (mmol/L) VD: Volume of the standard solution added to the wells in the Donor side plate (0.32 mL) CA: Concentration after five hours of the wells in the Acceptor side plate (mmol/L) VA: Volume of the PBS containing 20% of methanol added to the wells in the Acceptor side plate (0.2 mL) S: Surface of the membrane (0.3 cm^2) t: Standing time 18,000 s (=5 hrs).
On the technique in general: The PAMPA barrier holds no transporters, so it reflects passive diffusion.

Structures can show the parent of a compound that is named as a salt.

Usually EC50 stands for the midpoint of the concentration-response curve. Lower therefore signals an effect from little substance. For orientation: Papp means a coefficient for how fast a substance crosses the barrier.

On to `CC[C@H](C)[C@@H]([C@@H](CC(=O)N1CCC[C@H]1[C@H](OC)[C@@H](C)C(=O)N[C@@H](Cc1ccccc1)c1nc(C(=O)NCCNC)cs1)OC)N(C)C(=O)[C@@H](NC(=O)[C@H](C(C)C)N(C)C)C(C)C` [Reference Example 14, 2-((S)-1-(((2S,3R)-3-((S)-1-((3R,4S,5S)-4-((S)-2-((S)-2-(dimethylamino)-3-methylbutanamido)-N,3-dimethylbutanamido)-3-methoxy-5-methylheptanoyl)pyrrolidin-2-yl)-3-methoxy-2-methylpropanamido)-2-phenylethyl)-N-(2-(methylamino)ethyl)thiazole-4-carboxamidedihydrochloride, reference compound], for which the EC50 was 9.85 nM with A549 cells, more than 10 nM with SKOV-3 cells and 26.8 nM in the data set with L1210 cells. The compound also had a Papp at 5 h, 200 μmol/L in data set [1] of 0.004 ×10⁻⁶ cm/s.
As to `CC[C@H](C)[C@@H]([C@@H](CC(=O)N1CCC[C@H]1[C@H](OC)[C@@H](C)C(=O)N[C@@H](Cc1ccccc1)c1nc(C(=O)NCCN)cs1)OC)N(C)C(=O)[C@@H](NC(=O)[C@H](C(C)C)N(C)C)C(C)C` [Reference Example 12, N-(2-aminoethyl)-2-((S)-1-(((2S,3R)-3-((S)-1-((3R,4S,5S)-4-((S)-2-((S)-2-(dimethylamino)-3-methylbutanamido)-N, 3-dimethylbutanamido)-3-methoxy-5-methylheptanoyl)pyrrolidin-2-yl)-3-methoxy-2-methylpropanamido)-2-phenylethyl)thiazole-4-carboxamidedihydrochloride, reference compound], the EC50 is more than 10 nM with A549 cells, more than 10 nM in the data set on SKOV-3 cells and more than 50 nM in the data set with L1210 cells. For the same compound, the Papp at 5 h, 200 μmol/L in data set [1] was determined as 0.01 ×10⁻⁶ cm/s.
`CC[C@H](C)[C@@H]([C@@H](CC(=O)N1CCC[C@H]1[C@H](OC)[C@@H](C)C(=O)N[C@@H](Cc1ccccc1)c1nc(C(=O)N(C)CCS)cs1)OC)N(C)C(=O)[C@@H](NC(=O)[C@H](C(C)C)N(C)C)C(C)C` [Example 3]: the EC50 stood at 1.22 nM in the data set with A549 cells, 1.05 nM with SKOV-3 cells and 6.96 nM in the data set with L1210 cells. The Papp at 5 h, 200 μmol/L in data set [1] was found to be 1.14 ×10⁻⁶ cm/s.
In the case of `CC[C@H](C)[C@@H]([C@@H](CC(=O)N1CCC[C@H]1[C@H](OC)[C@@H](C)C(=O)N[C@@H](Cc1ccccc1)c1nc(C(=O)N(C)CCNC)cs1)OC)N(C)C(=O)[C@@H](NC(=O)[C@H](C(C)C)N(C)C)C(C)C` [Example 6, 2-((S)-1-((2R,3R)-3-((S)-1-((3R,4S,5S)-4-((S)-2-((S)-2-(dimethylamino)-3-methylbutanamido)-N,3-dimethylbutanamido)-3-methoxy-5-methylheptanoyl)pyrrolidin-2-yl)-3-methoxy-2-methylpropanamido)-2-phenylethyl)-N-methyl-N-(2-(methylamine)ethyl)thiazole-4-carboxamide dihydrochloride], the EC50 is 1.94 nM with A549 cells, 0.22 nM in the data set with SKOV-3 cells and 17.2 nM in the data set with L1210 cells.
In the case of `CC[C@H](C)[C@@H]([C@@H](CC(=O)N1CCC[C@H]1[C@H](OC)[C@@H](C)C(=O)N[C@@H](Cc1ccccc1)c1nc(C(=O)NCCS)cs1)OC)N(C)C(=O)[C@@H](NC(=O)[C@H](C(C)C)N(C)C)C(C)C` [Example 1], the figures for the EC50 with A549 cells, in the data set on SKOV-3 cells and with L1210 cells were 1.93 nM, 0.44 nM and 31.4 nM, respectively. The compound also displayed an apparent permeability (Papp) at 5 h, 200 μmol/L in data set [1] of 1.15 ×10⁻⁶ cm/s.
For `CC[C@H](C)[C@@H]([C@@H](CC(=O)N1CCC[C@H]1[C@H](OC)[C@@H](C)C(=O)N[C@@H](Cc1ccccc1)c1nc(C(=O)N(C)CCO)cs1)OC)N(C)C(=O)[C@@H](NC(=O)[C@H](C(C)C)N(C)C)C(C)C` [Example 9], in that order: 1.64 nM, 1.5 nM, 8.52 nM and 0.08 ×10⁻⁶ cm/s.
For `CC[C@H](C)[C@@H]([C@@H](CC(=O)N1CCC[C@H]1[C@H](OC)[C@@H](C)C(=O)N[C@@H](Cc1ccccc1)c1nc(C(=O)OCCN)cs1)OC)N(C)C(=O)[C@@H](NC(=O)[C@H](C(C)C)N(C)C)C(C)C` [Example 4], in that order: 0.83 nM, 0.85 nM, 28.7 nM and 0.01 ×10⁻⁶ cm/s.
For `CC[C@H](C)[C@@H]([C@@H](CC(=O)N1CCC[C@H]1[C@H](OC)[C@@H](C)C(=O)N[C@@H](Cc1ccccc1)c1nc(C(=O)NCCO)cs1)OC)N(C)C(=O)[C@@H](NC(=O)[C@H](C(C)C)N(C)C)C(C)C` [Example 7], in that order: 1.74 nM, 4.67 nM, 28.4 nM and 0.02 ×10⁻⁶ cm/s.
With `CC[C@H](C)[C@@H]([C@@H](CC(=O)N1CCC[C@H]1[C@H](OC)[C@@H](C)C(=O)N[C@@H](Cc1ccccc1)c1nc(C(=O)NCCc2ccc(O)cc2)cs1)OC)N(C)C(=O)[C@@H](NC(=O)[C@H](C(C)C)N(C)C)C(C)C` [Example 11, 2-((S)-1-((2R,3R)-3-((S)-1-((3R,4S,5S)-4-((S)-2-((S)-2-(dimethylamino)-3-methylbutanamido)-N,3-dimethylbutanamido)-3-methoxy-5-methylheptanoyl)pyrrolidin-2-yl)-3-methoxy-2-methylpropanamido)-2-phenylethyl)-N-(4-hydroxyphenethyl)thiazole-4-carboxamide], the values for the EC50 with A549 cells, in the data set with SKOV-3 cells and with L1210 cells were 1.31 nM, 0.37 nM and 5.61 nM, respectively. This compound also returned a Papp at 5 h, 200 μmol/L in data set [1] of 0.36 ×10⁻⁶ cm/s.
Turning to `CC[C@H](C)[C@@H]([C@@H](CC(=O)N1CCC[C@H]1[C@H](OC)[C@@H](C)C(=O)N[C@@H](Cc1ccccc1)c1nc(C(=O)OCCO)cs1)OC)N(C)C(=O)[C@@H](NC(=O)[C@H](C(C)C)N(C)C)C(C)C` [Example 8, 2-hydroxyethyl 2-((S)-1-((2R,3R)-3-((S)-1-((3R,4S,5S)-4-((S)-2-((S)-2-(dimethylamino)-3-methylbutanamido)-N,3-dimethylbutanamido)-3-methoxy-5-methylheptanoyl)pyrrolidin-2-yl)-3-methoxy-2-methylpropanamido)-2-phenylethyl)thiazole-4-carboxylate], the EC50 is 1.75 nM with A549 cells, 0.09 nM in the data set on SKOV-3 cells and 4.74 nM in the data set on L1210 cells. Also, the Papp at 5 h, 200 μmol/L in data set [1] stood at 0.04 ×10⁻⁶ cm/s.
As to `CC[C@H](C)[C@@H]([C@@H](CC(=O)N1CCC[C@H]1[C@H](OC)[C@@H](C)C(=O)N[C@@H](Cc1ccccc1)c1nc(C(=O)NCCNC(=O)CCS)cs1)OC)N(C)C(=O)[C@@H](NC(=O)[C@H](C(C)C)N(C)C)C(C)C` [Reference Example 16, reference compound], the results for the EC50 in the data set on A549 cells, in the data set on SKOV-3 cells and in the data set on L1210 cells were more than 10 nM, more than 10 nM and more than 50 nM, respectively.
As to `CC[C@H](C)[C@@H]([C@@H](CC(=O)N1CCC[C@H]1[C@H](OC)[C@@H](C)C(=O)N[C@@H](Cc1ccccc1)c1nc(C(=O)NCCc2ccc(N)cc2)cs1)OC)N(C)C(=O)[C@@H](NC(=O)[C@H](C(C)C)N(C)C)C(C)C` [Example 10], the results for the EC50 with A549 cells, in the data set on SKOV-3 cells and in the data set on L1210 cells were 1.08 nM, 0.27 nM and 4.05 nM, respectively. This compound also displayed a Papp at 5 h, 200 μmol/L in data set [1] of 0.3 ×10⁻⁶ cm/s.
In the same order, the values of `CC[C@H](C)[C@@H]([C@@H](CC(=O)N1CCC[C@H]1[C@H](OC)[C@@H](C)C(=O)N[C@@H](Cc1ccccc1)c1nc(C(=O)OCCS)cs1)OC)N(C)C(=O)[C@@H](NC(=O)[C@H](C(C)C)N(C)C)C(C)C` [Example 2, 2-mercaptoethyl 2-((S)-1-((2R,3R)-3-((S)-1-((3R,4S,5S)-4-((S)-2-((S)-2-(dimethylamino)-3-methylbutanamido)-N,3-dimethylbutanamido)-3-methoxy-5-methylheptanoyl)pyrrolidin-2-yl)-3-methoxy-2-methylpropanamido)-2-phenylethyl)thiazole-4-carboxylate] are 6.88 nM, 0.13 nM, 14.2 nM and 0.005 ×10⁻⁶ cm/s.
